According to patent US6399745B1, “Use of leptin antagonists for treating insulin resistance in type II diabetes” (Aventis Pharma Deutschland GmbH, priority 1996, dated 2002):

System: isolated rat adipocytes
Test: Antagonism of fragment 116-167 to the leptin effect: insulin-stimulated lipogenesis
Type: cell-based
Procedure: Adipocytes were prepared from the epididymal fat tissue of male Wistar rats (140-160 g, Hoechst AG breeding station, Kastengrund) by means of digesting with collagenase (Rodbell, 1964, J. Biol. Chem. 239, 375-380), washed twice with KRH (25 mM Hepes free acid, 25 mM Hepes sodium salt, 80 mM NaCl, 1 mM MgSO4, 2 mM CaCl2, 6 mM KCl, 1 mM sodium pyruvate, 0.5% BSA) and once with DMEM (Dulbecco's minimal essential medium), supplemented with 5.5 mM glucose, 20 mM Hepes (pH 7.4), 2% fetal calf serum, 1% BSA, 50 U of penicillin/ml, […], by means of flotation (800×g, 1 min, in small plastic tubes), and finally diluted to a volume of 20 ml of DMEM/g wet weight of the fat tissue (cell titer: approximately 2.5×10^5 cells/ml). […] In order to determine the capacity of the adipocytes to be stimulated by insulin, and their sensitivity to insulin, following the primary culture, the washed adipocytes were incubated at 37° C. for 20 min in the absence or presence of human insulin (0.02-50 nM final concentration), and glucose transport or lipogenesis was then measured. Lipogenesis was measured as the incorporation of D-glucose into toluene-extractable lipids (Moody et al., 1974, Horm. Metab. Res. 6, 12-16). […] The radioactivity of the lipids in the toluene phase was corrected for the radioactivity of an incubation mixture which contained the same quantity of [^3H]glucose but no cells. […]

Substance | Lipogenesis, stimulation factor for insulin (stimulated/basal) (Leptin: 10 nM 17.5 h, no fragment, Insulin: 5 nM) | Lipogenesis, stimulation factor for insulin (stimulated/basal) (Insulin only, 5 nM (no leptin, no fragment))
Leptin | 1.5 | 
Insulin: human insulin used to stimulate adipocytes [reference compound] |  | 3.9
